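Exposure lasted 48 hours, with cells grown in 96-well plates and compounds tested at five concentrations. GI50: concentration for 50% inhibition of growth.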 The source made the active and inactive calls. Rule as the data show it: active = GI50 up to about 1.1 µM and inactive = higher.
Tests used:
Assay in all cases: NCI-60 cell line screen, 48 h
HOP-62 = tested on: HOP-62
T47D = tested on: T47D
SK-MEL-2 = tested on: SK-MEL-2
SK-MEL-5 = tested on: SK-MEL-5
HOP-92 = tested on: HOP-92
M14 = tested on: M14
MDA-MB-435 = tested on: MDA-MB-435
SK-MEL-28 = tested on: SK-MEL-28
RXF 393 = tested on: RXF 393
SF-268 = tested on: SF-268
COLO 205 = tested on: COLO 205
OVCAR-4 = tested on: OVCAR-4
MOLT-4 = tested on: MOLT-4
U-251 = tested on: U-251
SK-OV-3 = tested on: SK-OV-3
SW-620 = tested on: SW-620
MCF7 = tested on: MCF7
RPMI-8226 = tested on: RPMI-8226
NCI-H23 = tested on: NCI-H23
K562 = tested on: K562
NCI/ADR-RES = tested on: NCI/ADR-RES
IGROV-1 = tested on: IGROV-1
A549 = tested on: A549
CAKI-1 = tested on: CAKI-1
SNB-75 = tested on: SNB-75
786-0 = tested on: 786-0
HL-60 = tested on: HL-60
ACHN = tested on: ACHN
Malme-3M = tested on: Malme-3M
CCRF-CEM = tested on: CCRF-CEM
NCI-H460 = tested on: NCI-H460
UACC-62 = tested on: UACC-62
SR = tested on: SR
LOX IMVI = tested on: LOX IMVI
SF-295 = tested on: SF-295
UACC-257 = tested on: UACC-257
MDA-MB-231 = tested on: MDA-MB-231
OVCAR-5 = tested on: OVCAR-5
A498 = tested on: A498
HCC 2998 = tested on: HCC 2998
Hs-578T = tested on: Hs-578T
SF-539 = tested on: SF-539
EKVX = tested on: EKVX
OVCAR-8 = tested on: OVCAR-8
SNB-19 = tested on: SNB-19
DU-145 = tested on: DU-145
NCI-H226 = tested on: NCI-H226
HCT-15 = tested on: HCT-15
SN12C = tested on: SN12C
HT-29 = tested on: HT-29
HCT-116 = tested on: HCT-116
TK-10 = tested on: TK-10
UO-31 = tested on: UO-31
KM12 = tested on: KM12
MDA-N = tested on: MDA-N

Measured: GI50

CCOC(=O)C1(C(=O)OCC)CCC(C(OC)OC)C(CC(=O)OC)C1 (configuration not stated)
inactive: HOP-62 > 10 µM | T47D > 10 µM | SK-MEL-2 > 10 µM | SK-MEL-5 > 10 µM | HOP-92 > 10 µM | M14 > 10 µM | MDA-MB-435 > 10 µM | SK-MEL-28 > 10 µM | RXF 393 > 10 µM | SF-268 > 10 µM | COLO 205 > 10 µM | OVCAR-4 > 10 µM | MOLT-4 > 10 µM | U-251 > 10 µM | SK-OV-3 > 10 µM | SW-620 > 10 µM | MCF7 > 10 µM | RPMI-8226 > 10 µM | NCI-H23 > 10 µM | K562 > 10 µM | NCI/ADR-RES > 10 µM | IGROV-1 > 10 µM | A549 > 10 µM | CAKI-1 > 10 µM | SNB-75 > 10 µM | 786-0 > 10 µM | HL-60 > 10 µM | ACHN > 10 µM | Malme-3M > 10 µM | CCRF-CEM > 10 µM | NCI-H460 > 10 µM | UACC-62 > 10 µM | SR > 10 µM

CN1c2ccccc2C(=O)NC12CCN(Cc1ccccc1)CC2
inactive: HOP-62 54.7 µM | LOX IMVI 46 µM | T47D 70.3 µM | SK-MEL-5 54.8 µM | SF-295 32 µM | UACC-257 59.6 µM | HOP-92 18.3 µM | M14 33.4 µM | MDA-MB-231 96.6 µM | OVCAR-5 > 100 µM | A498 57.1 µM | MDA-MB-435 63.1 µM | HCC 2998 83.6 µM | SK-MEL-28 73.8 µM | Hs-578T 36.7 µM | RXF 393 > 100 µM | SF-539 50.7 µM | EKVX 42.2 µM | SF-268 89.7 µM | OVCAR-8 69.2 µM | COLO 205 35.4 µM | OVCAR-4 80.2 µM | SNB-19 27.5 µM | MOLT-4 38.9 µM | U-251 40.1 µM | SK-OV-3 84.9 µM | DU-145 71.6 µM | SW-620 55.3 µM | NCI-H226 27.5 µM | MCF7 46 µM | RPMI-8226 47.2 µM | NCI-H23 > 100 µM | NCI/ADR-RES > 100 µM | IGROV-1 69.2 µM | SN12C 49.4 µM | A549 56.9 µM | SNB-75 75 µM | HT-29 27.6 µM | HCT-116 44.9 µM | 786-0 62.4 µM | TK-10 41 µM | HL-60 30.5 µM | UO-31 34.6 µM | ACHN 31.2 µM | Malme-3M 87.1 µM | CCRF-CEM 35.6 µM | NCI-H460 39.4 µM | KM12 46 µM | UACC-62 86.5 µM | SR 33.3 µM
42.5 µM: HCT-15

NNc1c(C(N)=O)c2c(N)ncnc2n1C1OC(CO)C(O)C1O (configuration not stated)
active: HOP-62 0.0196 µM | LOX IMVI 0.0112 µM | T47D < 0.01 µM | SF-295 0.233 µM | MDA-MB-231 0.0255 µM | EKVX 0.078 µM | COLO 205 0.0129 µM | MDA-N 0.0261 µM | DU-145 < 0.01 µM | SW-620 < 0.01 µM | NCI-H226 0.0536 µM | MCF7 0.0171 µM | K562 0.0451 µM | HT-29 0.0198 µM | HCT-116 0.0119 µM | ACHN 0.0107 µM | SR < 0.01 µM
0.0175 µM: HCT-15

Source: ChEMBL document CHEMBL1201862, “PubChem BioAssay data set” (2004)
